Laboratory results: US20070117776A1, “Low Dose Therapy Of DNA Methylation Inhibitors” (priority 2005, published 2007)
Where two headings read alike, the source gives them in different places.

Format: physicochemical
Experimental: Maintaining the solution at low temperature and buffering the drug can control degradation kinetics of aqueous solutions but the stability achieved is not sufficient to render the product stable during its entire proposed shelf life. A dry solid formulation of decitabine which is stable was achieved by lyophilization of an aqueous solution. The process of lyophilization to obtain a solid form is considered essential for maximizing the stability of the product.
A bulk solution of 5 mg/mL of decitabine was prepared during compounding. To minimize degradation during compounding of the bulk solution prior to lyophilization, the bulk solution was maintained at low temperature, and the time the drug remains in solution prior to lyophilization was minimized. Maximum solution stability was achieved by dissolving the drug in a pH 6.8-7.0 phosphate buffer solution at 0-4° C.
Based on the results, appropriate recommendations for the preparation and storage of the reconstituted and diluted solutions can be made to pharmacists and clinical practitioners. The product was reconstituted in 10 mL WFI and diluted with one of the three pre-chilled infusion fluids indicated in Table 1 and Table 2 to two different concentrations, 0.1 mg/mL and 1 mg/mL covering the entire concentration range expected to be used in the clinical setting. The diluted solutions were stored for one to ten hours in infusion bags in the refrigerator at 2-8° C. to simulate conditions prior to infusion and then removed and placed at room temperature to simulate conditions during infusion. Bags placed in the refrigerator for one hour were removed and placed at room temperature and sampled thereafter for the next three hours at room temperature (Experiment No. 1) while the bags placed in the refrigerator for ten hours were removed and sampled for the next two hours at room temperature (Experiment No. 2).
The method used to estimate degradation products is based on percent peak area measurements assuming the degradation products have a response factor of 1, with respect to decitabine.
Table 1 and Table 2 also show the pH data obtained after the preparation of the infusion, which is consistently within ±0.3 pH units of neutral pH.

[1] = 0.1 mg/mL in 0.9% NaCl, Experiment 1 (2-8° C. one hour, then room temperature), at 0 h
[2] = 0.1 mg/mL in 0.9% NaCl, Experiment 1 (2-8° C. one hour, then room temperature), at 1 h
[3] = 0.1 mg/mL in 0.9% NaCl, Experiment 1 (2-8° C. one hour, then room temperature), at 2 h
[4] = 0.1 mg/mL in 0.9% NaCl, Experiment 1 (2-8° C. one hour, then room temperature), at 3 h
[5] = 0.1 mg/mL in 0.9% NaCl, Experiment 1 (2-8° C. one hour, then room temperature), at 4 h
[6] = 0.1 mg/mL in 0.9% NaCl, Experiment 2 (2-8° C. ten hours, then room temperature), at 0 h
[7] = 0.1 mg/mL in 0.9% NaCl, Experiment 2 (2-8° C. ten hours, then room temperature), at 10 h
[8] = 0.1 mg/mL in 0.9% NaCl, Experiment 2 (2-8° C. ten hours, then room temperature), at 11 h
[9] = 0.1 mg/mL in 0.9% NaCl, Experiment 2 (2-8° C. ten hours, then room temperature), at 12 h
[10] = 0.1 mg/mL in 5% Dextrose, Experiment 1 (2-8° C. one hour, then room temperature), at 0 h
[11] = 0.1 mg/mL in 5% Dextrose, Experiment 1 (2-8° C. one hour, then room temperature), at 1 h
[12] = 0.1 mg/mL in 5% Dextrose, Experiment 1 (2-8° C. one hour, then room temperature), at 2 h
[13] = 0.1 mg/mL in 5% Dextrose, Experiment 1 (2-8° C. one hour, then room temperature), at 3 h
[14] = 0.1 mg/mL in 5% Dextrose, Experiment 1 (2-8° C. one hour, then room temperature), at 4 h
[15] = 0.1 mg/mL in 5% Dextrose, Experiment 2 (2-8° C. ten hours, then room temperature), at 0 h
[16] = 0.1 mg/mL in 5% Dextrose, Experiment 2 (2-8° C. ten hours, then room temperature), at 10 h
[17] = 0.1 mg/mL in 5% Dextrose, Experiment 2 (2-8° C. ten hours, then room temperature), at 11 h
[18] = 0.1 mg/mL in 5% Dextrose, Experiment 2 (2-8° C. ten hours, then room temperature), at 12 h
[19] = 0.1 mg/mL in Lactated Ringer's, Experiment 1 (2-8° C. one hour, then room temperature), at 0 h
[20] = 0.1 mg/mL in Lactated Ringer's, Experiment 1 (2-8° C. one hour, then room temperature), at 1 h
[21] = 0.1 mg/mL in Lactated Ringer's, Experiment 1 (2-8° C. one hour, then room temperature), at 2 h
[22] = 0.1 mg/mL in Lactated Ringer's, Experiment 1 (2-8° C. one hour, then room temperature), at 3 h
[23] = 0.1 mg/mL in Lactated Ringer's, Experiment 1 (2-8° C. one hour, then room temperature), at 4 h
[24] = 0.1 mg/mL in Lactated Ringer's, Experiment 2 (2-8° C. ten hours, then room temperature), at 0 h
[25] = 0.1 mg/mL in Lactated Ringer's, Experiment 2 (2-8° C. ten hours, then room temperature), at 10 h
[26] = 0.1 mg/mL in Lactated Ringer's, Experiment 2 (2-8° C. ten hours, then room temperature), at 11 h
[27] = 0.1 mg/mL in Lactated Ringer's, Experiment 2 (2-8° C. ten hours, then room temperature), at 12 h

Nc1ncn([C@H]2C[C@H](O)[C@@H](CO)O2)c(=O)n1 [Decitabine, 4-amino-1-(2-deoxy-β-D-erythro-pentofuranosyl)-1,3,5-triazin-2(1H)-one]
degradation in aqueous solution: degrades rapidly | pH after the preparation of the infusion (0.1 mg/mL in 0.9% NaCl): 6.7 | Decitabine Content [1]: 97.5% | Total Impurities [1]: (2.5%) | Decitabine Content [2]: 96.9% | Total Impurities [2]: (3.2%) | Decitabine Content [3]: 95.7% | Total Impurities [3]: (4.3%) | Decitabine Content [4]: 94.1% | Total Impurities [4]: (6.0%) | Decitabine Content [5]: 92.5% | Total Impurities [5]: (7.7%) | Decitabine Content [6]: 97.8% | Total Impurities [6]: (2.2%) | Decitabine Content [7]: 93.4% | Total Impurities [7]: (6.7%) | Decitabine Content [8]: 92.3% | Total Impurities [8]: (7.7%) | Decitabine Content [9]: 90.8% | Total Impurities [9]: (9.2%) | pH after the preparation of the infusion (0.1 mg/mL in 5% Dextrose): 6.9 | Decitabine Content [10]: 97.4% | Total Impurities [10]: (2.6%) | Decitabine Content [11]: 97.2% | Total Impurities [11]: (2.7%) | Decitabine Content [12]: 96.4% | Total Impurities [12]: (3.6%) | Decitabine Content [13]: 94.9% | Total Impurities [13]: (5.1%) | Decitabine Content [14]: 93.6% | Total Impurities [14]: (6.4%) | Decitabine Content [15]: 98.2% | Total Impurities [15]: (1.9%) | Decitabine Content [16]: 94.9% | Total Impurities [16]: (5.2%) | Decitabine Content [17]: 94.5% | Total Impurities [17]: (5.6%) | Decitabine Content [18]: 93.3% | Total Impurities [18]: (6.7%) | pH after the preparation of the infusion (0.1 mg/mL in Lactated Ringer's): 6.7 | Decitabine Content [19]: 98.3% | Total Impurities [19]: (1.7%) | Decitabine Content [20]: 98.1% | Total Impurities [20]: (1.9%) | Decitabine Content [21]: 97.0% | Total Impurities [21]: (3.0%) | Decitabine Content [22]: 95.9% | Total Impurities [22]: (4.1%) | Decitabine Content [23]: 94.9% | Total Impurities [23]: (5.2%) | Decitabine Content [24]: 98.0% | Total Impurities [24]: (2.1%) | Decitabine Content [25]: 93.4% | Total Impurities [25]: (6.7%) | Decitabine Content [26]: 92.6% | Total Impurities [26]: (7.4%) | Decitabine Content [27]: 91.8% | Total Impurities [27]: (8.3%) | pH of maximum solution stability (5 mg/mL): 6.8-7.0 | pH deviation from neutral pH after the preparation of the infusion (Table 1 and Table 2 solutions): ≤ 0.3 pH units
